In general, Ki refers to the equilibrium dissociation constant of an inhibitor or competing ligand from its target. High values mean lower affinity, low ones higher affinity.

A short description of data set [1]: in vitro. The data set is classed as in vitro ADME, human. The settings on record: HLM 0.50 mg/mL, NADPH 1 mM, 1 μM compound, pH 7.4, 37° C., 60 min.
Data set [2] in a line: in vitro. The data set is classed as in vitro ADME, human. The settings on record: for metabolised: human, microsomes, role: substrate, metabolite 83 formed in HLM, read-out: Metabolite Formation (percent formation of metabolite 83). As for the experimental part: The ability of deuteration in compound 68 to attenuate formation of metabolite 83 compared to the same transformation of the non-deuterated compound 18 was also determined.
HLM Stability. Pooled HLM from adult male and female donors (Corning 452117) were used.

Data set [3] is described as follows: in vitro. As to conditions: MLM (male CD-1) 0.50 mg/mL, NADPH 1 mM, 1 μM compound, pH 7.4, 37° C., 60 min. The data set is classed as in vitro ADME, mouse. An excerpt:
MLM Stability Pooled MLM from male CD-1 mice (BIOIVT M00501) were used.

The nature of data set [4]: in vitro. It counts as in vitro ADME, rat. The settings on record: RLM (male Sprague-Dawley) 0.50 mg/mL, NADPH 1 mM, 1 μM compound, pH 7.4, 37° C., 60 min. From the text: RLM Stability Pooled RLM from male Sprague-Dawley rats (Xenotech R1000) were used.
Data set [5] addresses T1, 5-HT2A receptor (Homo sapiens, UniProt P28223). Kind of data set: biochemical. The settings on record: [3H]ketanserin 1 nM; HEK293 stable cell line; 1 h, 25 °C. On the set-up: expressed in transfected cells; host or cells: HEK293, stably transfected. The data set is classed as binding. In short, it runs like this: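 Binding affinity comes from a [^3H]ketanserin radioligand assay run under literature-adapted conditions.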

In data set [6] the target is T2, 5-HT2B receptor (Homo sapiens, UniProt P41595).
T2 construct: expressed in transfected cells; host or cells: HEK293, stably transfected
T2 sequence (P41595 whole entry): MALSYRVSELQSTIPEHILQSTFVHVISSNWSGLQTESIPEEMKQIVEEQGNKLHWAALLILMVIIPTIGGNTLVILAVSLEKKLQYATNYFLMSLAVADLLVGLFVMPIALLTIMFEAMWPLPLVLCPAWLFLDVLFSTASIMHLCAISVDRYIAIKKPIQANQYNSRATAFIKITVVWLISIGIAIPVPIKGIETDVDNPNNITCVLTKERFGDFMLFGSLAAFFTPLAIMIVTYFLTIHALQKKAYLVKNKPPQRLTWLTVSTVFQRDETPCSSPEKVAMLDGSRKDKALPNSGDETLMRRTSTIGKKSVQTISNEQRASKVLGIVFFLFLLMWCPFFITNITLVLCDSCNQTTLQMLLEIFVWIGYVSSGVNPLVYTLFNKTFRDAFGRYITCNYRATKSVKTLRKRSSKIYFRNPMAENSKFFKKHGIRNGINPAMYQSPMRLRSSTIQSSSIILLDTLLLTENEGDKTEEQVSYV
Nature of the data set: cell-based. The data set is classed as cell-based. As to conditions: HEK293, agonist, Ca2+ flux, HEK293, max dose; read-out: 5-HT2B % Act @ Max Dose. In outline:
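FLIPR Tetra fluorescence read-out of calcium flux after compound addition. Receptor-expressing stable lines were used (HEK293 for 2A/2B; CHO with Gα15 for 1A), dye-loaded with Fluo-4 Direct and 2.5 mM final probenecid, 50 min at 37 °C.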

Data set [7] concerns the target T3, 5-HT1A receptor (Homo sapiens, UniProt P08908).
T3 construct: expressed in transfected cells; host or cells: CHO cells, stably transfected
T3 sequence (P08908 1-422): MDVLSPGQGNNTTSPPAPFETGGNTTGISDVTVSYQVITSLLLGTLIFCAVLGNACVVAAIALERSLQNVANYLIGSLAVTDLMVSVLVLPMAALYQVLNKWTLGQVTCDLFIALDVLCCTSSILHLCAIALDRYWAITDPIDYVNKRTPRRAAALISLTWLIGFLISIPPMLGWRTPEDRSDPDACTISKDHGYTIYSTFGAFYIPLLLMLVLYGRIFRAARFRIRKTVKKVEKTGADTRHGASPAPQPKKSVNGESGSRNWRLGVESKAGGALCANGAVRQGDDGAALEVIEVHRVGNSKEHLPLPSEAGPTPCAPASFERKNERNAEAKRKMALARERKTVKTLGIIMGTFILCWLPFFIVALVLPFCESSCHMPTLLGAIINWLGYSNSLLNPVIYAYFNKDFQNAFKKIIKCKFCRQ
Nature of the data set: cell-based. The settings on record: CHO, agonist, Ca2+ flux, CHO cells with Gα15, max dose; read-out: 5-HT1A % Act @ Max Dose. In outline: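 Using HEK293 lines for the 5-HT2 subtypes and Gα15-coupled CHO cells for 5-HT1A, compounds were tested as agonists. Fluorescent Ca2+ signal followed dye loading (Fluo-4 Direct, 2.5 mM final probenecid, 50 min, 37 °C).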
For orientation: Calcium assays in cells follow changes in intracellular calcium, usually with a dye or a luminescent sensor.

Data set [8] has as its target T4, 5-HT1B receptor (Homo sapiens, UniProt P28222).
T4 construct: expressed in transfected cells
Kind of data set: cAMP accumulation functional assay at 5-HT1B. It counts as cell-based. As to conditions: agonist, cAMP accumulation, max dose; read-out: 5-HT1B % Act @ Max Dose. In short, it runs like this: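 Agonist activity measured as cAMP accumulation in cells stably transfected with human 5-HT1B. Cells incubated 60 min at RT, then detection reagent added for a further 60 min at RT before plate reading.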

Data set [9] has as its target T5, Alpha1A adrenergic receptor (Homo sapiens, UniProt P35348).
T5 construct: expressed in transfected cells
T5 sequence (P35348 1-466): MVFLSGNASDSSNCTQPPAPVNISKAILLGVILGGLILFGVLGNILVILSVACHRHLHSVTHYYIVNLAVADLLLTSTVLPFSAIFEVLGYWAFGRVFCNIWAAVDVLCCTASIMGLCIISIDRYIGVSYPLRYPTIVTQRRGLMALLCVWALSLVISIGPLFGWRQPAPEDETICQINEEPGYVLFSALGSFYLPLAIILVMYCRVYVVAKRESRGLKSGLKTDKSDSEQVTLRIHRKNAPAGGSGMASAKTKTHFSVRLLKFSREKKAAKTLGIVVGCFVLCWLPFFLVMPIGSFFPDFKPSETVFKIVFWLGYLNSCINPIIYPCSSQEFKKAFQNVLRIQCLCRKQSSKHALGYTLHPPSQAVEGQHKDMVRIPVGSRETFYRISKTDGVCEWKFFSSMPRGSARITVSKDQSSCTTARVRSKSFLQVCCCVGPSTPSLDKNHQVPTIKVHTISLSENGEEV
Nature of the data set: Ca2+ flux functional assay at Alpha1A. As to conditions: agonist, Ca2+ flux, max dose; read-out: Alpha 1A % Act @ Max Dose. The data set is classed as cell-based. Here is the method:
Disclosed compounds were tested for agonist activity at several adrenergic (Alpha1A and Alpha2A) and dopamine (D1 and D2) receptor subtypes using Ca^2+ flux functional assays, with the results summarized in Table 6. Selectivity for the 5-HT2A receptor over these other targets varied depending on the specific target and compound.
Functional Assays at Adrenergic and Dopamine Receptors. Agonist activity at Alpha1A, Alpha2A, D1, and D2 receptors was determined using a FLIPR Ca^2+ flux assay at WuXi AppTec (Hong Kong) Limited according to their standard protocols. Briefly, stably transfected cells expressing the receptor of interest were grown and plated in a 384 well plate and incubated at 37° C. and 5% CO2 overnight. A solution of 250 mM probenecid in 1 mL FLIPR assay buffer was prepared fresh. This was combined with a fluorescent dye (Fluo-4 Direct™) to make a final assay concentration of 2.5 mM. Compounds were diluted 1:3.16 for 10 points and 750 nL was added to a 384 well compound plate using ECHO along with 30 μL assay buffer. The fluorescent dye was then added to the assay plate along with assay buffer to a final volume of 40 μL. The cell plate was incubated for 50 min at 37° C. and 5% CO2 and placed into the FLIPR Tetra along with the compound plate. 10 μL of references and compounds were then transferred from the compound plate into the cell plate and the fluorescent signal was read.

The target of data set [10] is T1, 5-HT2A receptor. Nature of the data set: cell-based. On the set-up: expressed in transfected cells; host or cells: HEK293, stably transfected. It counts as cell-based. As to conditions: HEK293, agonist, Ca2+ flux, HEK293, max dose; read-out: 5-HT2A % Act @ Max Dose. In short, it runs like this: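 Receptor agonism was assessed as intracellular calcium mobilization in stably transfected cells, with CHO cells additionally carrying Gα15 for the 5-HT1A readout. Calcium was monitored with Fluo-4 Direct dye.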

Read-outs that look alike come from different tables or passages of the source.

T1 sequence (P28223 whole entry): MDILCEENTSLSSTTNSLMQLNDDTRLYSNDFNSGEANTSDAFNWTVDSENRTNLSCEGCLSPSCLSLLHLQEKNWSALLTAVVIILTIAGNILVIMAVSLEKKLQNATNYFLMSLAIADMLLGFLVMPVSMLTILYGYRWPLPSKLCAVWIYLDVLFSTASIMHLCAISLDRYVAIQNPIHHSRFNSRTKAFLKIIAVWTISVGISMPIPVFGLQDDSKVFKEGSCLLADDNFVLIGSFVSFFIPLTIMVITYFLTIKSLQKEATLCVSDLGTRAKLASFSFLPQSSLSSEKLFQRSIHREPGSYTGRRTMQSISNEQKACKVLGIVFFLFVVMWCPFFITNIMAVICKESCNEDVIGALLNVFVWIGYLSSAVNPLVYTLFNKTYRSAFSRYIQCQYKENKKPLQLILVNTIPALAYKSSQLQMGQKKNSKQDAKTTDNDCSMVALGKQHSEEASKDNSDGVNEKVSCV
T4 sequence (P28222 whole entry): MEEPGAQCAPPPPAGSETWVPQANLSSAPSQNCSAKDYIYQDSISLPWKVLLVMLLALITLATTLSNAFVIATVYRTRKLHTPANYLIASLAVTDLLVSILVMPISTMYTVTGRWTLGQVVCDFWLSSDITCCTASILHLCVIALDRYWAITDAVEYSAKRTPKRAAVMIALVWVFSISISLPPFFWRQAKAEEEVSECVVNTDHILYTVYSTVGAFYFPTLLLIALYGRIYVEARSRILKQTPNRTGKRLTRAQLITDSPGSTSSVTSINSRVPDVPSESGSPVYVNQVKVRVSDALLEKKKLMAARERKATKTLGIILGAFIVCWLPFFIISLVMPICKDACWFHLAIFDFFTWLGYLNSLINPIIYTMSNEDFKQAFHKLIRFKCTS

On to `[2H]C([2H])(c1cccc(OC)c1)N1C[C@H](C(=O)N(CC)CC)C=C2c3cccc4[nH]cc(c34)C[C@H]21` [Compound 68, (6aR,9R)—N,N-diethyl-7-((3-methoxyphenyl)methyl-d2)-4,6,6a,7,8,9-hexahydroindolo[4,3-fg]quinoline-9-carboxamide], for which the microsomal CLint in data set [1] (human, microsomes, read-out: Intrinsic clearance (Clint)) is 130 µL/min/mg; in [3] (mouse, microsomes, read-out: Intrinsic clearance (Clint)), 436 µL/min/mg; in [4] (rat, microsomes, read-out: Intrinsic clearance (Clint)) it was 360 µL/min/mg. The half-life in [1] (human, microsomes, read-out: half-life (t1/2)) stood at 10.6 min; in data set [3] (mouse, microsomes, read-out: half-life (t1/2)), 3.2 min; in data set [4] (rat, microsomes, read-out: half-life (t1/2)) it was 3.9 min. For the same compound, the “formation of metabolite 83” value in [2] (formation of 83 from 68 compared to formation from 18) was “substantially attenuated compared to formation of 83 from 18”. Besides, the metabolised in data set [2] (T = 0) stood at 0.1%; in data set [2] (T = 5) it was 2.9%; in data set [2] (T = 15), 4.3%; in data set [2] (T = 30), 5.7%; in data set [2] (T = 45), 5.8%; in data set [2] (T = 60), 6.2%. For the same compound, in data set [5], the affinity corresponds to a Ki of 3.02 nM.

As for `CCN(CC)C(=O)[C@@H]1C=C2c3cccc4[nH]cc(c34)C[C@H]2N(CC2CC2)C1` [Compound 13, (6aR,9R)—N,N-diethyl-7-(cyclopropylmethyl)-4,6,6a,7,8,9-hexahydroindolo[4,3-fg]quinoline-9-carboxamide], the Emax was found to be 91.8% in data set [6]; 83.1% in [7]; 90.4% in data set [8]; 80.8% in data set [9]; 92.6% in data set [10]. Also, the “half-life (t1/2)” value is on record as 21.1 min in data set [1], 3.7 min in data set [3] and 27.7 min in [4].

Turning to `CCN(CC)C(=O)[C@@H]1C=C2c3cccc4[nH]cc(c34)C[C@H]2N(CCC(F)(F)F)C1` [Compound 12, (6aR,9R)—N,N-diethyl-7-(3,3,3-trifluoropropyl)-4,6,6a,7,8,9-hexahydroindolo[4,3-fg]quinoline-9-carboxamide], the Emax in [6] was 29.6%; in [7], 71.4%; in data set [8], 95.5%; in data set [9], 2.08%; in data set [10] it was 78.7%. In addition, the “half-life (t1/2)” value is listed as 13.5 min in [1], 2.1 min in [3] and 5.9 min in data set [4].

Source of the values: patent US20260317319A1, “NOVEL ERGOLINES AND METHODS OF TREATING MOOD DISORDERS” (Gilgamesh Pharma Inc., priority 2023, published 2026).
